{"source": "patent US7365077B2", "about": "“Piperazine bis-amide derivatives and their use as antagonists of the orexin receptor” (SmithKline Beecham p.l.c., priority 2001, dated 2008)", "origin": "cited, not measured here", "key": {"freely-feeding rats": {"tested_on": "freely-feeding rats", "conditions": "central administration, 4 hour time period"}, "orexin receptors": {"tested_on": "orexin receptors", "conditions": "central administration at the onset of the normal sleep period, rat"}}, "note": "No end group written: not given here.", "data": [{"substance": "orexin-A: Peptide ligand (agonist) of the orexin receptors; human sequence given in b87 (QPLPDCCRQKTCSCRLYELLHGAGNHAAGILTL; ends and bridges not checked; cysteine pairing not given here; UniProt O43612 34-66, looked up)", "values": [{"measurement": "increase in food intake over control rats receiving vehicle", "setting": "freely-feeding rats", "value": "approximately four-fold"}, {"measurement": "effect on arousal", "setting": "orexin receptors", "value": "dose-related increase in arousal"}]}]}
